Legend:
Format in all cases: in vivo
[1] = system: Cabbage Looper (Trichoplusia ni, TRIPNI); assay: Bioassay on Cabbage Looper (CL), 128-well diet tray assay; details: 168 h, 50 μg/cm^2 on artificial diet, second instar larvae, 25° C., five to seven days, average of eight wells, read-out: CL % Control (or Mortality) rating
Method: (§1) Certain molecules disclosed in this document were tested against BAW and CL using procedures described in the following examples. In the reporting of the results, the “BAW & CL Rating Table” was used (See Table Section).
Bioassays on CL were conducted using a 128-well diet tray assay. one to five second instar CL larvae were placed in each well (3 mL) of the diet tray that had been previously filled with 1 mL of artificial diet to which 50 μg/cm^2 of the test molecule (dissolved in 50 μL of 90:10 acetone-water mixture) had been applied (to each of eight wells) and then allowed to dry. Trays were covered with a clear self-adhesive cover, vented to allow gas exchange, and held at 25° C., 14:10 light-dark for five to seven days. Percent mortality was recorded for the larvae in each well; activity in the eight wells was then averaged. The results are indicated in the table entitled “Table ABC: Biological Results” (See Table Section).

[2] = system: Yellow Fever Mosquito (Aedes aegypti, AEDSAE); details: about 1 day-old larvae, 96-well plate from 4000 ppm DMSO master, 3 days at room temperature
Method: Certain molecules disclosed in this document were tested against YFM using procedures described in the following paragraph. In the reporting of the results, the “GPA & YFM Rating Table” was used (See Table Section).
Master plates containing 400 μg of a molecule dissolved in 100 μL of dimethyl sulfoxide (DMSO) (equivalent to a 4000 ppm solution) are used. A master plate of assembled molecules contains 15 μL per well. To this plate, 135 μL of a 90:10 water/acetone mixture is added to each well. A robot is programmed to dispense 15 μL aspirations from the master plate into an empty 96-well shallow plate (“daughter” plate). There are 6 reps (“daughter” plates) created per master. The created “daughter” plates are then immediately infested with YFM larvae.
The day before plates are to be treated, mosquito eggs are placed in Millipore water containing liver powder to begin hatching (4 g. into 400 mL). After the “daughter” plates are created using the robot, they are infested with 220 μL of the liver powder/larval mosquito mixture (about 1 day-old larvae). After plates are infested with mosquito larvae, a non-evaporative lid is used to cover the plate to reduce drying. Plates are held at room temperature for 3 days prior to grading. After 3 days, each well is observed and scored based on mortality. The results are indicated in the table entitled “Table ABC: Biological Results” (See Table Section).

[3] = system: Beet Armyworm (Spodoptera exigua, LAPHEG); assay: Bioassay on Beet Armyworm (BAW), 128-well diet tray assay; details: 168 h, 50 μg/cm^2 on artificial diet, second instar larvae, 25° C., five to seven days, average of eight wells, read-out: BAW % Control (or Mortality) rating
Method: as §1
Bioassays on BAW were conducted using a 128-well diet tray assay. One to five second instar BAW larvae were placed in each well (3 mL) of the diet tray that had been previously filled with approximately 1.5 mL of artificial diet to which 50 μg/cm^2 of the test molecule (dissolved in 50 μL of 90:10 acetone-water mixture) had been applied (to each of eight wells) and then allowed to dry. Trays were covered with a clear self-adhesive cover, vented to allow gas exchange, and held at 25° C., 14:10 light-dark for five to seven days. Percent mortality was recorded for the larvae in each well; activity in the eight wells was then averaged. The results are indicated in the table entitled “Table ABC: Biological Results” (See Table Section).

| Compound | mortality at 50 µg/cm2 [1] [%] | YFM % Control (or Mortality) rating [2] | mortality at 50 µg/cm2 [3] [%] |
| --- | --- | --- | --- |
| O=C(NC1CC(F)(F)C1)c1cc(NC(=O)[C@H]2[C@H](c3ccc(C(F)(F)F)cc3)C2(Cl)Cl)ccc1Cl (relative stereo) [Molecule F22, trans-2-Chloro-5-(2,2-dichloro-3-(4-(trifluoromethyl)phenyl)cyclopropanecarboxamido)-N-(3,3-difluorocyclobutyl)benzamide] | 50 to 100 | A (80-100) | 50 to 100 |
| CN(C(=O)c1cc(NC(=O)[C@H]2[C@H](c3ccc(Cl)c(Cl)c3)C2(Cl)Cl)ccc1Cl)C1CC(F)(F)C1 (relative stereo) [Molecule F33, trans-2-Chloro-5-(2,2-dichloro-3-(3,4-dichlorophenyl)cyclopropanecarboxamido)-N-(3,3-difluorocyclobutyl)-N-methylbenzamide] | 50 to 100 | A (80-100) | 50 to 100 |
| N#CC1CCC(NC(=O)c2cc(NC(=O)[C@H]3[C@H](c4cc(Cl)cc(Cl)c4)C3(Cl)Cl)ccc2Cl)C1 (relative stereo) [Molecule F35, trans-2-Chloro-N-(3-cyanocyclopentyl)-5-(2,2-dichloro-3-(3,5-dichlorophenyl)cyclopropanecarboxamido)benzamide] | 50 to 100 | A (80-100) | 50 to 100 |
| N#CC1CCC(NC(=O)c2cc(NC(=O)[C@H]3[C@H](c4ccc(Cl)c(Cl)c4)C3(Cl)Cl)ccc2Cl)C1 (relative stereo) [Molecule F36, trans-2-Chloro-N-(3-cyanocyclopentyl)-5-(2,2-dichloro-3-(3,4-dichlorophenyl)cyclopropanecarboxamido)benzamide] | 50 to 100 | B (More than 0-Less than 80) | 50 to 100 |
| N#CC1CCC(NC(=O)c2cc(NC(=O)[C@H]3[C@H](c4cc(Cl)c(Cl)c(Cl)c4)C3(Cl)Cl)ccc2Cl)C1 (relative stereo) [Molecule F39, trans-2-Chloro-N-(3-cyanocyclopentyl)-5-(2,2-dichloro-3-(3,4,5-trichlorophenyl)cyclopropanecarboxamido)benzamide] | 50 to 100 | A (80-100) | 50 to 100 |
| O=C(NC1CCC1)c1cc(NC(=O)[C@H]2[C@H](c3cc(Cl)cc(Cl)c3)C2(Cl)Cl)ccc1Cl (relative stereo) [Molecule F40, trans-2-Chloro-N-cyclobutyl-5-(2,2-dichloro-3-(3,5-dichlorophenyl)cyclopropanecarboxamido)benzamide] | 50 to 100 | A (80-100) | 50 to 100 |
| O=C(NC1CCC(F)(F)CC1)c1cc(NC(=O)[C@H]2[C@H](c3cc(Cl)cc(Cl)c3)C2(Cl)Cl)ccc1Cl (relative stereo) [Molecule F43, trans-2-Chloro-5-(2,2-dichloro-3-(3,5-dichlorophenyl)cyclopropanecarboxamido)-N-(4,4-difluorocyclohexyl)benzamide] | 50 to 100 | A (80-100) | 50 to 100 |
| O=C(NC1CCC(F)(F)CC1)c1cc(NC(=O)[C@H]2[C@H](c3ccc(Cl)c(Cl)c3)C2(Cl)Cl)ccc1Cl (relative stereo) [Molecule F44, trans-2-Chloro-5-(2,2-dichloro-3-(3,4-dichlorophenyl)cyclopropanecarboxamido)-N-(4,4-difluorocyclohexyl)benzamide] | 50 to 100 | A (80-100) | 50 to 100 |
| O=C(NC1CCC(F)(F)CC1)c1cc(NC(=O)[C@H]2[C@H](c3cc(Cl)c(Cl)c(Cl)c3)C2(Cl)Cl)ccc1Cl (relative stereo) [Molecule F45, trans-2-Chloro-5-(2,2-dichloro-3-(3,4,5-trichlorophenyl)cyclopropanecarboxamido)-N-(4,4-difluorocyclohexyl)benzamide] | 50 to 100 | A (80-100) | 50 to 100 |
| Cc1cc(Cl)cc([C@H]2[C@H](C(=O)Nc3ccc(Cl)c(C(=O)NC4CC(F)(F)C4)c3)C2(Cl)Cl)c1 (relative stereo) [Molecule F46, trans-2-Chloro-5-(2,2-dichloro-3-(3-chloro-5-methylphenyl)cyclopropanecarboxamido)-N-(3,3-difluorocyclobutyl)benzamide] | 50 to 100 | D (No activity noticed in this bioassay) | 50 to 100 |
| Cc1c(Cl)cc([C@H]2[C@H](C(=O)Nc3ccc(Cl)c(C(=O)NC4CC(F)(F)C4)c3)C2(Cl)Cl)cc1Cl (relative stereo) [Molecule F48, trans-2-Chloro-5-(2,2-dichloro-3-(3,5-dichloro-4-methylphenyl)cyclopropanecarboxamido)-N-(3,3-difluorocyclobutyl)benzamide] | 50 to 100 | A (80-100) | 50 to 100 |
| O=C(NC1CNC1)c1cc(NC(=O)[C@H]2[C@H](c3cc(Cl)cc(Cl)c3)C2(Cl)Cl)ccc1Cl (relative stereo) [Molecule F59, trans-N-(azetidin-3-yl)-2-chloro-5-(2,2-dichloro-3-(3,5-dichlorophenyl)cyclopropanecarboxamido) benzamide] | 50 to 100 | – | 50 to 100 |
| O=C(NC1CN(C(=O)C(F)(F)F)C1)c1cc(NC(=O)[C@H]2[C@H](c3cc(Cl)cc(Cl)c3)C2(Cl)Cl)ccc1Cl (relative stereo) [Molecule F60, trans-2-chloro-5-(2,2-dichloro-3-(3,5-dichlorophenyl)cyclopropanecarboxamido)-N-(1-(2,2,2-trifluoroacetyl)azetidin-3-yl)benzamide] | 50 to 100 | – | 50 to 100 |
| N#CC1(NC(=O)c2cc(NC(=O)[C@H]3[C@H](c4ccc(Cl)c(F)c4)C3(Cl)Cl)ccc2Cl)CC1 (relative stereo) [PF2, trans-2-Chloro-N-(1-cyanocyclopropyl)-5-(2,2-dichloro-3-(4-chloro-3-fluorophenyl)cyclopropane-1-carboxamido)benzamide] | 50 to 100 | – | 50 to 100 |
| N#CC1(NC(=O)c2cc(NC(=O)[C@H]3[C@H](c4ccc(F)c(Cl)c4)C3(Cl)Cl)ccc2Cl)CC1 (relative stereo) [PF3, trans-2-Chloro-N-(1-cyanocyclopropyl)-5-(2,2-dichloro-3-(3-chloro-4-fluorophenyl)cyclopropane-1-carboxamido)benzamide] | 50 to 100 | – | 50 to 100 |
| CN(C(=O)c1cc(NC(=O)[C@H]2[C@H](c3cc(Cl)cc(Cl)c3)C2(Cl)Cl)ccc1Cl)C1(C#N)CC1 (relative stereo) [PF20, trans-2-Chloro-N-(1-cyanocyclopropyl)-5-(2,2-dichloro-3-(3,5-dichloro-phenyl)cyclopropane-1-carboxamido)-N-methylbenzamide] | 50 to 100 | – | 50 to 100 |
| O=C(NC1C[S+]([O-])C1)c1cc(NC(=O)C2C(c3cc(Cl)c(Cl)c(Cl)c3)C2(Cl)Cl)ccc1Cl (single isomer, unassigned) [Molecule F56, trans-2-chloro-5-(2,2-dichloro-3-(3,4,5-trichlorophenyl)cyclopropanecarboxamido)-N-(1-oxidothietan-3-yl)benzamide] | 50 to 100 | – | 50 to 100 |
| N#CC1(NC(=O)c2cc(NC(=O)[C@H]3[C@H](c4cc(Cl)cc(Cl)c4)C3(Cl)Cl)ccc2Cl)CC1 [Molecule F75, 2-Chloro-N-(1-cyanocyclopropyl)-5-((1R,3R)-2,2-dichloro-3-(3,5-dichloro-phenyl)cyclopropane-1-carboxamido)benzamide] | – | A (80-100) | – |
